Converted amounts (≈) assume the structure as drawn.
Legend:
[1] = 0.1 M NaOH, used as standard; no reference given; cited from earlier work
S. aureus 1466 = assay: Antibacterial activity test (MIC, MBC, growth curve); type: cell-based, Staphylococcus aureus
Protocol: (§1) All bacteria strains were obtained from the Thailand Institute of Scientific and Technological Research (TISTR). The antibacterial activity of chalcones 3a–f was determined by the minimal inhibitory concentration (MIC) and the minimal bactericidal concentration (MBC) against the Gram-positive (S. aureus 1466, TISTR 1466) and Gram-negative (E.coli 780, TISTR 780) bacteria. The stocks of chalcones 3a–f (0.60 mg/mL) were serially diluted in Muller–Hinton (MH) broth to obtain concentrations in the range of 250–1000 µM. The solutions of chalcones 3a–f (100 µL) at different concentrations were added in the culture of the tested bacteria (100 µL) at a concentration of 1 × 10^6 colony-forming units/mL (CFU/mL) in MH broth at 37 °C with shaking at 80 rpm. The bacterial numbers were determined by measuring the optical density at 600 nm by a UV–Vis spectrometer. […] To determine the MBC values, the bacterial cultures (10 µL) containing the solutions of chalcones 3a–f at MIC and three higher concentrations were dropped on MH agar plates.

HEK-293 = assay: Cell viability MTT assay, normal cells; type: cell-based; settings: Homo sapiens, HEK293; HEK-293, 24 h, MTT; read-out: IC50
Protocol: (§2) For fluorescence imaging of living cells, human embryonic kidney 293 (HEK-293, ATCC) and human hepatoma cancer cell (HepG2, ATCC) were cultured in Dulbecco′s Modified Eagle′s Medium (DMEM, HyClone) supplemented with 10% Fetal Bovine Serum (FBS, Gibco, Carlsbad, CA, USA) and 1% Penicillin/Streptomycin Solution 100X (Corning, Corning, NY, USA). All cells were cultured in a humidified incubator at 37 °C with 5% CO2. HEK-293 and HepG2 cells, approximately 1 × 10^4 cells, were seeded on 8-well chambered cover glasses (LabTek, Nunc, Carlsbad, CA, USA) and incubated in complete medium for 24 h. After that, the cells were treated with 5 μM stock solutions of 3a–f in DMSO/cell culture medium containing 10% FBS (0.25% DMSO), for 0, 1, 3, and 6 h. Then, the cells were washed twice with 0.01 M PBS before being visualized under a Laser-Scanning Confocal Microscope (Nikon A1Rsi) with a 60× oil immersion objective lens and living cell workstation with the excitation channel at 488 nm.
(§3) The cells were seeded on a 96-well plate, approximately 7 × 10^3 cells per well, and incubated in complete medium for 24 h. After that, the cells were treated with 0, 1, 5, 10, 20, and 50 μM of chalcones 3a–f, and culturing continued for 24 h. After incubation, the cells were washed three times with 10 mM PBS and treated with […] of methylthiazolyldiphenyl-tetrazolium bromide (MTT reagent, 0.5 mg mL^−1, Sigma-Aldrich, St. Louis, MO, USA) for 2–3 h. After medium removal, DMSO was added to dissolve the formazan product, and cell viability was determined by UV–Vis absorption of the resulting formazan at a wavelength of 560 nm in a microplate reader (BMG Labtech/SPECTROstar Nano, Ortenberg, Germany).

[2] = Photo-stability test (photobleaching under 250 W blue light); type: physicochemical; settings: DMSO, 250 W blue light (380–500 nm), after 30 min irradiation
Protocol: Chalcones 3a–f were dissolved in DMSO at the final concentration of 1 × 10^−6 M for measuring absorption and emission intensity. Then, 3a–f were irradiated at 250 W (blue-lamp) at a distance of 75 cm. The UV–Visible absorption and fluorescence spectra of the solutions were measured at different time points including 0, 1, 5, 10, 15, 20, and 30 min. Photo-stability was reported in terms of photobleaching absorption and emission (%) calculated from the change of absorption and emission intensity at the absorption and emission maxima before and after irradiation.

HepG2 = assay: Cell viability MTT assay, cancer cells; type: cell-based; settings: Homo sapiens; HepG2, 24 h, MTT; read-out: IC50
Protocol: as §2, §3

[3] = pH effect on fluorescence emission; type: physicochemical; settings: pH range from 2 to 12, 2 µM, 3% Tween 80
Protocol: Chalcones 3a–f (2 µM) were dissolved in commercial pH 1–12 buffers purchased from Merck (St. Louis, MO, USA) (glycine/NaCl/HCl for pH 1, citric acid/NaOH/HCl for pH 2–6, Na2HPO4/KH2PO4 for pH 7, boric acid/ KCl/NaOH for pH 8–11, Na3PO4/NaOH for pH 12) in the presence of Tween 80 (3% w/w). The actual pH values of the final buffer solutions were measured by a pH meter. The resulting solutions were examined by a Spectrofluorometer (PerkinElmer LS55) at the maximum absorbance wavelength of each compound.

E. coli 780 = assay: Antibacterial activity test (MIC, MBC, growth curve); type: cell-based, Escherichia coli
Protocol: as §1

[4] = Photophysical properties (UV–Vis absorption and fluorescence spectra); type: physicochemical; settings: for λabs absorption maximum wavelength / ∆λ stokes shifts (λem − λabs) / λem emission maximum wavelength / Φf fluorescence quantum yields: 2 µM; for λem emission maximum wavelength: excited at the maximum absorption wavelength; for Φf fluorescence quantum yields: n = 3, relative to fluorescein in 0.1 M NaOH
Protocol: All UV–Vis absorption and fluorescence spectra were recorded on a UV–Vis Spectrophotometer (Agilent Technologies Cary 300, Santa Clara, CA, USA) and a Spectrofluorometer (PerkinElmer LS55, Waltham, MA, USA), respectively. In both experiments, the stock solutions of chalcones 3a–f were prepared as 0.5 mM in DMSO. The appropriate amount of the stock solution was added to DMSO, MeOH, and 0.01 M PBS buffer (pH 7.4) with 3% Tween 80 (3 mL) to obtain the final concentration of 2 µM in the testing solutions. For fluorescence experiments, the emission spectra were recorded at the maximum absorbance wavelength of each compound. The fluorescent quantum yields (Φf) were calculated relative to fluorescein in 0.1 M NaOH as a standard (Φf = 0.95).

In the case of `O=C1OC2(c3ccc(O)cc3Oc3cc(O)ccc32)c2ccccc21` [fluorescein], the “Φf fluorescent quantum yield of the standard” value [1] is listed as 0.95.
For `CN(C)c1ccc(/C=C/C(=O)c2ccc(N(C)C)cc2)cc1` [3d], the “bacterial growth (OD600 growth curve)” value (S. aureus 1466; S. aureus 1466, increasing concentration, 24 h) was “significantly inhibited”, the MBC (S. aureus 1466; Staphylococcus aureus, S. aureus 1466, mean ± SD of three independent experiments, read-out: MBC) was 1000 ± 0.01 µM (≈ 294 µg/mL) and the MIC (S. aureus 1466; Staphylococcus aureus, S. aureus 1466, mean ± SD of three independent experiments, read-out: MIC) was 250 ± 0.01 µM (≈ 73.6 µg/mL). The IC50 (HEK-293) was greater than 100 µM, the “% photobleaching of absorbance” value [2] was 51% and the “% photobleaching of fluorescence” value [2] was 30%. The IC50 (HepG2) was 56 µM, the fluorescence emission [3] was “Higher emission peaks” and the “bacterial growth (OD600 growth curve)” value (E. coli 780; E. coli 780, increasing concentration, 24 h) was “significantly inhibited”. The MBC (E. coli 780; Escherichia coli, E. coli 780, mean ± SD of three independent experiments, read-out: MBC) was 375 ± 0.01 µM (≈ 110 µg/mL), the MIC (E. coli 780; Escherichia coli, E. coli 780, mean ± SD of three independent experiments, read-out: MIC) was 250 ± 0.01 µM (≈ 73.6 µg/mL) and the ε molar absorptivity ([4]; DMSO) was 46000 M⁻¹ cm⁻¹. For the same molecule, the “λabs absorption maximum wavelength” value ([4]; DMSO) was 422 nm, the “∆λ stokes shifts (λem − λabs)” value ([4]; DMSO) was 94 nm and the “λem emission maximum wavelength” value ([4]; DMSO) was 516 nm. For the same molecule, the “Φf fluorescence quantum yields” value ([4]; DMSO) was 0.10 ± 0.02, the ε molar absorptivity ([4]; MeOH) was 37000 M⁻¹ cm⁻¹ and the “λabs absorption maximum wavelength” value ([4]; MeOH) was 423 nm. The “∆λ stokes shifts (λem − λabs)” value ([4]; MeOH) was 132 nm, the “λem emission maximum wavelength” value ([4]; MeOH) was 555 nm and the “Φf fluorescence quantum yields” value ([4]; MeOH) was 0.024 ± 0.015. For the same molecule, the ε molar absorptivity ([4]; PBS (3%w/w tween 80)) was 44000 M⁻¹ cm⁻¹, the “λabs absorption maximum wavelength” value ([4]; PBS (3%w/w tween 80)) was 422 nm and the “∆λ stokes shifts (λem − λabs)” value ([4]; PBS (3%w/w tween 80)) was 120 nm. The “λem emission maximum wavelength” value ([4]; PBS (3%w/w tween 80)) was 542 nm and the “Φf fluorescence quantum yields” value ([4]; PBS (3%w/w tween 80)) was 0.17 ± 0.03.

Reference: PMC8156934, “Photophysical Study and Biological Applications of Synthetic Chalcone-Based Fluorescent Dyes” (Molecules, 2021)
